Results reported in patent publication US20040142317A1, “Use of amino acid transporter atbo,+ as a delivery system for drugs and prodrugs” (priority 2003, published 2004).
“And” between values parts separate entries of the source, which are not always exact repeats. Equal entries are not always repeated.

Key:
mouse ATB^0,+ [1] = biological target: T1, mouse ATB^0,+ (Mus musculus, UniProt Q9JMA9)
T1 sequence (Q9JMA9 1-638): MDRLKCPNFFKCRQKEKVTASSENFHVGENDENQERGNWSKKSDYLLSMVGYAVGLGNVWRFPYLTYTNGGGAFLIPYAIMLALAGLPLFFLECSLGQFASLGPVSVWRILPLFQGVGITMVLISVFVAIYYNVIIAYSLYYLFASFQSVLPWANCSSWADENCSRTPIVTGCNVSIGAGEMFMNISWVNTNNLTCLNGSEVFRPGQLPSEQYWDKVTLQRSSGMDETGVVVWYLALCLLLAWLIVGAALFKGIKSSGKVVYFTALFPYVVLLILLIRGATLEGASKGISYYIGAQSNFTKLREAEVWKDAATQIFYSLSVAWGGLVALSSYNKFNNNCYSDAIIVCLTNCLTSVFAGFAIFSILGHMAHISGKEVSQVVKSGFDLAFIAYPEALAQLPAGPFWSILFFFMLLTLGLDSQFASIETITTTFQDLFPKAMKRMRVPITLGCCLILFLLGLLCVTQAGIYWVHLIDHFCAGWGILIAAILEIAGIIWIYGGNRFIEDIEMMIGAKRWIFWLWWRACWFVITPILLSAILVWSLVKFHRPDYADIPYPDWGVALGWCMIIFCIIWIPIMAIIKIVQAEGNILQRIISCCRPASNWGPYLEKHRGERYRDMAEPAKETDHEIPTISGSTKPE

mouse ATB^0,+ [2] = biological target: T1, mouse ATB^0,+; conditions: for Current in X. laevis oocytes (nA), L-isomer: L-amino acid 1 mM; for Current in X. laevis oocytes (nA), L-isomer / Current in X. laevis oocytes (nA), D-isomer: NaCl pH 7.5; for inward current in the absence of Cl− (sodium gluconate) / inward current in the absence of Na+ (NMDG chloride) / Current in X. laevis oocytes: compound 1 mM; for Current in X. laevis oocytes: NaCl medium pH 7.5, voltage clamp; for Current in X. laevis oocytes (nA), D-isomer: D-amino acid 1 mM; for K0.5 (concentration inducing half-maximal current; Michaelis-Menten constant): oocytes, membrane potential −50 mV
mouse ATB^0,+ [3] = biological target: T1, mouse ATB^0,+; assay: Inhibition of ATB0,+-specific [3H]-L-NNA transport by amino acids in HRPE cells; format: cell-based; conditions: amino acids 5 mM; [3H]-L-NNA 10 μM
mouse ATB^0,+ [4] = biological target: T1, mouse ATB^0,+; assay: Transport of radiolabeled substrates in HRPE cells expressing cloned mouse ATB0,+; format: cell-based; conditions: HRPE cells
mouse ATB^0,+ [5] = biological target: T1, mouse ATB^0,+; conditions: for effect on ATB^0,+-mediated glycine transport (in words): glycine 10 μM, HRPE cells
ATB^0 = biological target: T2, ATB^0 (Homo sapiens, UniProt Q15758); assay: cell-based
T2 sequence (Q15758 1-541): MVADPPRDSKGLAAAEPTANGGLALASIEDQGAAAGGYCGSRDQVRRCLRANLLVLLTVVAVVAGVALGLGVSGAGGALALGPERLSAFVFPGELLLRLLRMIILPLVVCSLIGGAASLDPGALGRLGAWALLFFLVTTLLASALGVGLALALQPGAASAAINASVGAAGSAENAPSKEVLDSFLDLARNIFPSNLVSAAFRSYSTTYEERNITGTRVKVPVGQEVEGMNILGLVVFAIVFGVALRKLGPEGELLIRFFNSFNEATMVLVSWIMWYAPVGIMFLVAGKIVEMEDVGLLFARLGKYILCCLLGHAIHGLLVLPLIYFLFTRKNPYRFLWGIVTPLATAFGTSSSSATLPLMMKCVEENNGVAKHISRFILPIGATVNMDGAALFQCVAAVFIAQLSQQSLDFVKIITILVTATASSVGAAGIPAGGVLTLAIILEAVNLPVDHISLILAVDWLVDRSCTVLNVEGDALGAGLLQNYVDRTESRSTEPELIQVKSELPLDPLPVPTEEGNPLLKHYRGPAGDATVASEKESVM

N=C(N)NCCC[C@H](N)C(=O)O [Arginine]
activity (mouse ATB^0,+ [1]): 30% | Current in X. laevis oocytes (nA), L-isomer (mouse ATB^0,+ [2]): 339 ± 35 nA | inward current in the absence of Cl− (sodium gluconate) (mouse ATB^0,+ [2]): No measurable current | inward current in the absence of Na+ (NMDG chloride) (mouse ATB^0,+ [2]): No measurable current | Current in X. laevis oocytes (mouse ATB^0,+ [2]): 382 ± 57 nA | inhibition of ATB^0,+-specific L-NNA transport (mouse ATB^0,+ [3]): inhibition

NC(=O)C[C@H](N)C(=O)O [Asparagine, L-Asparagine]
Current in X. laevis oocytes (nA), L-isomer (mouse ATB^0,+ [2]): 394 ± 67 nA

NC(=O)NCCC[C@H](N)C(=O)O [Citrulline]
Current in X. laevis oocytes (mouse ATB^0,+ [2]): 498 ± 114 nA

C[C@@H](N)C(=O)O [D-Alanine, D-alanine]
Current in X. laevis oocytes (nA), D-isomer (mouse ATB^0,+ [2]): 402 ± 39 nA

N=C(N)NCCC[C@H](N)C(=O)O [D-Arginine, Arginine]
Current in X. laevis oocytes (nA), D-isomer (mouse ATB^0,+ [2]): 6 ± 1 nA

NC(=O)C[C@H](N)C(=O)O [D-Asparagine, Asparagine]
Current in X. laevis oocytes (nA), D-isomer (mouse ATB^0,+ [2]): 3 ± 2 nA

NC(=O)CC[C@@H](N)C(=O)O [D-Glutamine, D-glutamine]
Current in X. laevis oocytes (nA), D-isomer (mouse ATB^0,+ [2]): 16 ± 11 nA

N[C@H](Cc1c[nH]cn1)C(=O)O [D-Histidine, D-histidine]
Current in X. laevis oocytes (nA), D-isomer (mouse ATB^0,+ [2]): 29 ± 6 nA

CC[C@H](C)[C@H](N)C(=O)O [D-Isoleucine, Isoleucine]
Current in X. laevis oocytes (nA), D-isomer (mouse ATB^0,+ [2]): 4 ± 4 nA

CC(C)C[C@@H](N)C(=O)O [D-Leucine, D-leucine]
Current in X. laevis oocytes (nA), D-isomer (mouse ATB^0,+ [2]): 161 ± 25 nA

NCCCC[C@H](N)C(=O)O [D-Lysine, Lysine]
Current in X. laevis oocytes (nA), D-isomer (mouse ATB^0,+ [2]): 9 ± 9 nA

CSCC[C@@H](N)C(=O)O [D-Methionine, D-methionine]
Current in X. laevis oocytes (nA), D-isomer (mouse ATB^0,+ [2]): 213 ± 15 nA

N[C@H](Cc1ccccc1)C(=O)O [D-Phenylalanine, D-phenylalanine]
Current in X. laevis oocytes (nA), D-isomer (mouse ATB^0,+ [2]): 24 ± 24 nA

C[C@H](O)[C@@H](N)C(=O)O [D-Threonine, D-threonine]
Current in X. laevis oocytes (nA), D-isomer (mouse ATB^0,+ [2]): 41 ± 5 nA

N[C@H](Cc1c[nH]c2ccccc12)C(=O)O [D-Tryptophan, D-tryptophan]
Current in X. laevis oocytes (nA), D-isomer (mouse ATB^0,+ [2]): 157 ± 23 nA

CC(C)[C@H](N)C(=O)O [D-Valine, Valine]
Current in X. laevis oocytes (nA), D-isomer (mouse ATB^0,+ [2]): 4 ± 3 nA

NC(=O)CC[C@H](N)C(=O)O [Glutamine, L-Glutamine]
Current in X. laevis oocytes (nA), L-isomer (mouse ATB^0,+ [2]): 453 ± 53 nA

NCC(=O)O [Glycine]
inhibition of ATB^0,+-specific L-NNA transport (mouse ATB^0,+ [3]): inhibition | Hill coefficient for Na+ activation of substrate transport (mouse ATB^0,+ [4]): 2.0±0.1 | K0.5 for Cl− in substrate transport (mouse ATB^0,+ [4]): 18 ± 8 mM | K0.5 for Na+ in substrate transport (mouse ATB^0,+ [4]): 25 ± 1 mM | Michaelis-Menten constant (Kt) of transport via mouse ATB^0,+ (mouse ATB^0,+ [4]): 210 ± 18 µM | transport in ATB^0,+ cDNA-transfected cells compared to vector-transfected cells (mouse ATB^0,+ [4]; radiolabeled substrate): 38 fold and 30 fold

N[C@@H](Cc1c[nH]cn1)C(=O)O [Histidine]
Current in X. laevis oocytes (nA), L-isomer (mouse ATB^0,+ [2]): 410 ± 64 nA

CC[C@H](C)[C@H](N)C(=O)O [Isoleucine]
Current in X. laevis oocytes (nA), L-isomer (mouse ATB^0,+ [2]): 117 ± 16 nA

N[C@@H](CC(=O)OCc1ccccc1)C(=O)O [L-Aspartate β-benzyl ester]
IC50 (mouse ATB^0,+ [5]): 70 ± 8 µM | potency relative to benzyl ester of glutamate (mouse ATB^0,+ [5]; from IC50 values): about 2 fold

N=C(N)NOCC[C@H](N)C(=O)O [L-Canavanine]
activity (mouse ATB^0,+ [1]): 24% | inhibition (mouse ATB^0,+ [1]): 75% | Current in X. laevis oocytes (mouse ATB^0,+ [2]): 269 ± 73 nA

N[C@@H](CCC(=O)OCc1ccccc1)C(=O)O [L-Glutamate γ-benzyl ester]
IC50 (mouse ATB^0,+ [5]): 156 ± 12 µM

CSC(N)=NCCC[C@H](N)C(=O)O [L-MTC]
inward current in the absence of Cl− (sodium gluconate) (mouse ATB^0,+ [2]): no measurable currents | inward current in the absence of Na+ (NMDG chloride) (mouse ATB^0,+ [2]): no measurable currents | Current in X. laevis oocytes (mouse ATB^0,+ [2]): 116±34 nA and 118 ± 34 nA | K0.5 (concentration inducing half-maximal current; Michaelis-Menten constant) (mouse ATB^0,+ [2]): 1.36 ± 0.08 mM

CSCC[C@H](N)C(=O)O [L-Methionine, Methionine]
Current in X. laevis oocytes (nA), L-isomer (mouse ATB^0,+ [2]): 278 ± 26 nA

NC(=NCCC[C@H](N)C(=O)OCc1ccccc1)N[N+](=O)[O-] [L-NABE]
Current in X. laevis oocytes (mouse ATB^0,+ [2]): 16 ± 2 nA

COC(=O)[C@@H](N)CCCNC(=N)N[N+](=O)[O-] [L-NAME]
Current in X. laevis oocytes (mouse ATB^0,+ [2]): 11 ± 2 nA

CN(C)C(N)=NCCC[C@H](N)C(=O)O [L-NDMA]
Current in X. laevis oocytes (mouse ATB^0,+ [2]): 85 ± 15 nA

CC(=N)NCCCC[C@H](N)C(=O)O [L-NIL]
inward current in the absence of Cl− (sodium gluconate) (mouse ATB^0,+ [2]): ~10 nA | inward current in the absence of Na+ (NMDG chloride) (mouse ATB^0,+ [2]): no measurable inward current | Current in X. laevis oocytes (mouse ATB^0,+ [2]): 89 ± 18 nA | K0.5 (concentration inducing half-maximal current; Michaelis-Menten constant) (mouse ATB^0,+ [2]): 2.72 ± 0.29 mM

CC(=N)NCCC[C@H](N)C(=O)O [L-NIO]
Current in X. laevis oocytes (mouse ATB^0,+ [2]): 71 ± 16 nA | K0.5 (concentration inducing half-maximal current; Michaelis-Menten constant) (mouse ATB^0,+ [2]): 2.24 ± 0.35 mM

CCNC(=N)NCCC[C@H](N)C(=O)O [L-NMEA]
Current in X. laevis oocytes (mouse ATB^0,+ [2]): 138 ± 16 nA

CNC(=N)NCCC[C@H](N)C(=O)O [L-NMMA]
activity (mouse ATB^0,+ [1]): 36% | Current in X. laevis oocytes (mouse ATB^0,+ [2]): 411 ± 76 nA

N=C(NCCC[C@H](N)C(=O)O)N[N+](=O)[O-] [L-NNA, N^ω-nitro-L-arginine]
IC50 (mouse ATB^0,+ [5]): 560 ± 40 µM | activity (mouse ATB^0,+ [1]): 21% | Current in X. laevis oocytes (mouse ATB^0,+ [2]): 200 ± 92 nA | Michaelis-Menten constant (Kt) of transport via mouse ATB^0,+ (mouse ATB^0,+ [4]; radiolabeled substrate): 750 ± 100 µM | transport in ATB^0,+ cDNA-transfected cells compared to vector-transfected cells (mouse ATB^0,+ [4]; radiolabeled substrate): 4 fold

NC(=S)NCCC[C@H](N)C(=O)O [L-TC]
Current in X. laevis oocytes (mouse ATB^0,+ [2]): 497 ± 104 nA

CC(C)[C@H](N)C(=O)O [L-Valine, Valine]
Current in X. laevis oocytes (nA), L-isomer (mouse ATB^0,+ [2]): 310 ± 24 nA

CC(C)C[C@H](N)C(=O)O [Leucine]
Current in X. laevis oocytes (nA), L-isomer (mouse ATB^0,+ [2]): 187 ± 14 nA

NCCCC[C@H](N)C(=O)O [Lysine]
Current in X. laevis oocytes (nA), L-isomer (mouse ATB^0,+ [2]): 321 ± 34 nA | Current in X. laevis oocytes (mouse ATB^0,+ [2]): 545 ± 95 nA

CNC(C)(C)C(=O)O [MeAIB]
inhibition of ATB^0,+-specific L-NNA transport (mouse ATB^0,+ [3]): did not inhibit

NCCC[C@H](N)C(=O)O [Ornithine]
Current in X. laevis oocytes (mouse ATB^0,+ [2]): 131 ± 27 nA

N[C@@H](Cc1ccccc1)C(=O)O [Phenylalanine]
Ki (ATB^0): 4230 ± 999 µM | Ki (mouse ATB^0,+ [5]): 68.6 ± 2.4 µM | Current in X. laevis oocytes (nA), L-isomer (mouse ATB^0,+ [2]): 275 ± 58 nA

N[C@@H](CO)C(=O)O [Serine]
Current in X. laevis oocytes (nA), L-isomer (mouse ATB^0,+ [2]): 470 ± 42 nA | inhibition of ATB^0,+-specific L-NNA transport (mouse ATB^0,+ [3]): inhibition

C[C@@H](O)[C@H](N)C(=O)O [Threonine]
Current in X. laevis oocytes (nA), L-isomer (mouse ATB^0,+ [2]): 233 ± 12 nA

N[C@@H](Cc1c[nH]c2ccccc12)C(=O)O [Tryptophan]
Current in X. laevis oocytes (nA), L-isomer (mouse ATB^0,+ [2]): 112 ± 4 nA

C[N+](C)(C)CC(=O)O [betaine]
effect on ATB^0,+-mediated glycine transport (in words) (mouse ATB^0,+ [5]): little or no effect

CC(C)[C@H](N)C(=O)OCCOCn1cnc2c(=O)[nH]c(N)nc21 [valacyclovir, L-valine α-ester of acyclovir]
transport in ATB^0,+-expressing cells versus vector-transfected cells (in words) (mouse ATB^0,+ [4]; [14C]phenylglycine 10 μM or [8-3H]-valacyclovir 1.25 μM): three times higher

NCCCC(=O)O [γ-Aminobutyrate, γ-aminobutyrate]
effect on ATB^0,+-mediated glycine transport (in words) (mouse ATB^0,+ [5]): little or no effect
